This is an account of results in US5776739A, “Process for producing disaccharides and novel disaccharides” (Kyowa Hakko Kogyo Co., Ltd., priority 1919, dated 1998).

Structures are written as SMILES.

One data set concerns alkaline phosphatase. Briefly: Residual alkaline phosphatase activity after storage in frozen form (Test Example 2). Type of data set: biochemical, calf. The conditions noted are these: sugar 50 mM; stored frozen at -20° C. for 6 days. Here is the method: (§1) Each of the sample solutions (10 μl) was incubated at 37° C. in 2.0 ml of the reaction mixture consisting of 1M diethanol-amine buffer (pH 10.2), 0.2 mM magnesium chloride and 5 mM p-nitrophenyl phosphoric acid. Then, the enzyme activity was determined by the amount of p-nitrophenol produced therein, which was culculated on the basis of change in absorbance at 405 nm. The activity of each of the sample solutions immediately after the preparation was defined as 100%, and the residual activity in the stored sample solution was calculated.
(§2) A sample solution (unsupplemented) was prepared by diluting alkaline phosphatase with distilled water. Other sample solutions were prepared by adding, to the above solution, trehalose, maltose, glucosyl (α, 1-1)D-fucose or glucosyl (α, 1-4)L-fucose to the concentration of 50 mM. The sample solutions were stored in frozen form at -20° C. for 6 days. After thawing at room temperature, the activity of alkaline phosphatase in each of the sample solutions was determined in a manner similar to that employed in Test Example 1. The activity of each of the sample solutions immediately after preparation was defined as 100%, and the residual activity in the stored sample solution was calculated.
For `OC[C@H]1O[C@H](O[C@H]2O[C@H](CO)[C@@H](O)[C@H](O)[C@H]2O)[C@H](O)[C@@H](O)[C@@H]1O` [Trehalose, glucosyl(α,1-1)D-glucose], the Residual activity amounted to 26.4%.

As for `C[C@H]1O[C@H](O[C@H]2O[C@H](CO)[C@@H](O)[C@H](O)[C@H]2O)[C@H](O)[C@@H](O)[C@H]1O` [Glucosyl (α, 1-1) D-fucose, glucosyl (α, 1-1)D-fucose], the Residual activity is reported as 36.3%.

As to `C[C@@H]1OC(O)[C@@H](O)[C@H](O)[C@@H]1O[C@H]1O[C@H](CO)[C@@H](O)[C@H](O)[C@H]1O` (stereo partly drawn) [Glucosyl (α, 1-4) L-fucose, glucosyl (α, 1-4)L-fucose], the Residual activity is 76.0%.

For the compound `OC[C@H]1O[C@H](O[C@H]2[C@H](O)[C@@H](O)[C@H](O)O[C@@H]2CO)[C@H](O)[C@@H](O)[C@@H]1O` [Maltose, glucosyl(α,1-4)D-glucose], the Residual activity is reported as 20.0%.

The test system of the next data set is alkaline phosphatase. Briefly: Residual alkaline phosphatase activity after repeated freezing and thawing (Test Example 3). In kind it is biochemical, calf. The conditions noted are these: sugar 50 mM; frozen (dry ice/ethanol) and thawed 10 times. Here is the method: as §1
as §2, with “mM. Each of the” for “mM. The”, “solutions was” for “solutions were stored in”, “frozen by dry ice/ethanol and thawed” for “frozen form at -20° C. for 6 days. After thawing”, “room temperature repeatedly 10 times in total. The” for “room temperature, the”, “after the” for “after”, “the frozen and thawed” for “the stored”
As to `OC[C@H]1O[C@H](O[C@H]2O[C@H](CO)[C@@H](O)[C@H](O)[C@H]2O)[C@H](O)[C@@H](O)[C@@H]1O` [Trehalose, glucosyl(α,1-1)D-glucose], the Residual activity was 21.6%.

Take `C[C@H]1O[C@H](O[C@H]2O[C@H](CO)[C@@H](O)[C@H](O)[C@H]2O)[C@H](O)[C@@H](O)[C@H]1O` [Glucosyl (α, 1-1) D-fucose, glucosyl (α, 1-1)D-fucose]: the Residual activity worked out at 65.0%.

`C[C@@H]1OC(O)[C@@H](O)[C@H](O)[C@@H]1O[C@H]1O[C@H](CO)[C@@H](O)[C@H](O)[C@H]1O` (stereo partly drawn) [Glucosyl (α, 1-4) L-fucose, glucosyl (α, 1-4)L-fucose]: the Residual activity is listed as 106.0%.

`OC[C@H]1O[C@H](O[C@H]2[C@H](O)[C@@H](O)[C@H](O)O[C@@H]2CO)[C@H](O)[C@@H](O)[C@@H]1O` [Maltose, glucosyl(α,1-4)D-glucose]: the Residual activity is given as 16.3%.

System in a further data set: not given
Experiment: not given
As to conditions: C. Colaco et al., Bio/Technology, 10, 1007-1011 (1992); cited from earlier work.
`OC[C@H]1O[C@H](O[C@H]2O[C@H](CO)[C@@H](O)[C@H](O)[C@H]2O)[C@H](O)[C@@H](O)[C@@H]1O` [Trehalose, glucosyl(α,1-1)D-glucose]: the “enhance the stability of biopolymers such as enzyme proteins” value was “enhance the stability of biopolymers such as enzyme proteins”.

The next data set has as its system alkaline phosphatase. The data set is described as follows: Residual alkaline phosphatase activity after storage as solution at room temperature (Test Example 1). The conditions noted are these: overall conclusion from Test Examples 1-4. Type of data set: biochemical, calf. How it is done:
A sample solution (unsupplemented) was prepared by diluting alkaline phosphatase (derived from calf small intestine, Boehringer Mannheim Biochemica) with distilled water. Other sample solutions were prepared by adding, to the above solution, trehalose, maltose, glucosyl (α, 1-1)D-fucose or glucosyl (α, 1-4)L-fucose to the concentration of 50 mM. The sample solutions were allowed to stand at room temperature (25° C.) for 24 hours, and the activity of alkaline phosphatase in each of the sample solutions was determined.
The activity of alkaline phosphatase was determined as follows.
as §1
As for `OC[C@H]1O[C@H](O[C@H]2O[C@H](CO)[C@@H](O)[C@H](O)[C@H]2O)[C@H](O)[C@@H](O)[C@@H]1O` [Trehalose, glucosyl(α,1-1)D-glucose], the “effective as a stabilizer for alkaline phosphatase” value (shortened to “effective as a stabilizer”) is listed as “effective as a stabilizer for alkaline phosphatase”.

Turning to `C[C@H]1O[C@H](O[C@H]2O[C@H](CO)[C@@H](O)[C@H](O)[C@H]2O)[C@H](O)[C@@H](O)[C@H]1O` [Glucosyl (α, 1-1) D-fucose, glucosyl (α, 1-1)D-fucose], the “effective as a stabilizer” value is “effective as a stabilizer for alkaline phosphatase”.

`C[C@@H]1OC(O)[C@@H](O)[C@H](O)[C@@H]1O[C@H]1O[C@H](CO)[C@@H](O)[C@H](O)[C@H]1O` (stereo partly drawn) [Glucosyl (α, 1-4) L-fucose, glucosyl (α, 1-4)L-fucose]: the “effective as a stabilizer” value is “effective as a stabilizer for alkaline phosphatase”.

For `OC[C@H]1O[C@H](O[C@H]2[C@H](O)[C@@H](O)[C@H](O)O[C@@H]2CO)[C@H](O)[C@@H](O)[C@@H]1O` [Maltose, glucosyl(α,1-4)D-glucose], the “effective as a stabilizer” value is on record as “effective as a stabilizer for alkaline phosphatase”.

Staying with this data set, now noted: sugar 50 mM; solution, room temperature (25° C.), 24 hours.
On to `OC[C@H]1O[C@H](O[C@H]2O[C@H](CO)[C@@H](O)[C@H](O)[C@H]2O)[C@H](O)[C@@H](O)[C@@H]1O` [Trehalose, glucosyl(α,1-1)D-glucose], for which the Residual activity is listed as 9.4%.

On to `C[C@H]1O[C@H](O[C@H]2O[C@H](CO)[C@@H](O)[C@H](O)[C@H]2O)[C@H](O)[C@@H](O)[C@H]1O` [Glucosyl (α, 1-1) D-fucose, glucosyl (α, 1-1)D-fucose], for which the Residual activity was determined as 21.8%.

Turning to `C[C@@H]1OC(O)[C@@H](O)[C@H](O)[C@@H]1O[C@H]1O[C@H](CO)[C@@H](O)[C@H](O)[C@H]1O` (stereo partly drawn) [Glucosyl (α, 1-4) L-fucose, glucosyl (α, 1-4)L-fucose], the Residual activity is recorded as 93.7%.

In the case of `OC[C@H]1O[C@H](O[C@H]2[C@H](O)[C@@H](O)[C@H](O)O[C@@H]2CO)[C@H](O)[C@@H](O)[C@@H]1O` [Maltose, glucosyl(α,1-4)D-glucose], the Residual activity came out at 3.3%.

Another data set has as its system alkaline phosphatase. The data set is described as follows: Residual alkaline phosphatase activity after storage as dried powder (Test Example 4). Type of data set: biochemical, calf. As to conditions: sugar 50 mM; dry powder stored at 50° C. for 24 hours. Here is the method:
as §1
A sample solution (unsupplemented) was prepared by diluting alkaline phosphatase with distilled water. Other sample solutions were prepared by adding, to the above solution, trehalose, maltose, glucosyl (α, 1-1)D-fucose or glucosyl (α, 1-4)L-fucose to the concentration of 50 mM. Each of the sample solutions was evaporated at room temperature to dryness using a vacuum pump to obtain dry powder, and the dry powder was stored at 50° C. for 24 hours. The activity of alkaline phosphatase in each of the sample solutions was determined in a manner similar to that employed in Test Example 1. The activity of each of the sample solutions immediately after preparation was defined as 100%, and the residual activity in the stored sample solution was calculated.
`OC[C@H]1O[C@H](O[C@H]2O[C@H](CO)[C@@H](O)[C@H](O)[C@H]2O)[C@H](O)[C@@H](O)[C@@H]1O` [Trehalose, glucosyl(α,1-1)D-glucose]: the Residual activity worked out at 55.0%.

For the compound `C[C@H]1O[C@H](O[C@H]2O[C@H](CO)[C@@H](O)[C@H](O)[C@H]2O)[C@H](O)[C@@H](O)[C@H]1O` [Glucosyl (α, 1-1) D-fucose, glucosyl (α, 1-1)D-fucose], the Residual activity was determined as 62.5%.

For `C[C@@H]1OC(O)[C@@H](O)[C@H](O)[C@@H]1O[C@H]1O[C@H](CO)[C@@H](O)[C@H](O)[C@H]1O` (stereo partly drawn) [Glucosyl (α, 1-4) L-fucose, glucosyl (α, 1-4)L-fucose], the Residual activity came to 83.0%.

Consider `OC[C@H]1O[C@H](O[C@H]2[C@H](O)[C@@H](O)[C@H](O)O[C@@H]2CO)[C@H](O)[C@@H](O)[C@@H]1O` [Maltose, glucosyl(α,1-4)D-glucose], for which the Residual activity is 41.0%.
